For 22 compounds, IC50 results are on record in patent US11918582B2 (RAPT Therapeutics, Inc., priority 2021, dated 2024).

The target of this test is T1, human HPK1 (MAP4K1) (Homo sapiens, UniProt Q92918).
T1 construct: Recombinant human HPK1 kinase domain was obtained from ThermoFisher (Cat. #PV6357) and SignalChem (Cat. #M23-11G); purchased ThermoFisher; SignalChem PV6357; M23-11G
T1 sequence (Q92918 17-274 limits assumed): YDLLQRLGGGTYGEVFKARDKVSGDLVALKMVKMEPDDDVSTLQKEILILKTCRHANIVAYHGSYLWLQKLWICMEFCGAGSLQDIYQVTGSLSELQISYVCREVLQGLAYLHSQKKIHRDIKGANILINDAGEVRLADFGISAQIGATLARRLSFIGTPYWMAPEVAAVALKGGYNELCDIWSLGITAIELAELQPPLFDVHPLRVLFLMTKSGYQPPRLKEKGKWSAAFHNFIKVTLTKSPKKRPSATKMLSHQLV
The experiment in a line: Biochemical assay for activity against HPK1 (ADP-Glo, MBP substrate). Particulars: recombinant human HPK1 kinase domain, 1 nM enzyme, ADP-Glo luminescence. From the text:
These compounds are made by the synthetic methods described earlier herein. Example 227 Biochemical Assay for Testing Compounds for Activity against HPK1
The enzymatic activity of human HPK1 (MAP4K1) was monitored in a biochemical assay in the presence or absence of compounds, using a peptide substrate (myelin basic protein, MBP), with an ADP-Glo assay kit (Promega, Cat. #V9103). An increase in phosphorylation of the peptide by HPK1 was indicative of its kinase activity.
Recombinant human HPK1 kinase domain was obtained from ThermoFisher (Cat. #PV6357) and SignalChem (Cat. #M23-11G). A 1 nM HPK1 kinase enzyme solution was prepared from the HPK1 stock received from the commercial supplier using an assay buffer containing 50 mM HEPES (4-(2-hydroxyethyl)-1-piperazineethanesulfonic acid) pH 7.5 (Fisher Scientific, Cat. #H1035), 150 mM NaCl (Fisher Scientific, Cat. #50843067), 3 mM TCEP-HCl (Tris(2-carboxyethyl)phosphine hydrochloride; Fisher Scientific, Cat. #PIPG82080), 10 mM MgCl2 (Fisher Scientific, Cat. #AM9530G), 0.005% Tween-20 (Fisher Scientific, Cat. #BP337500) and 0.01% BSA (bovine serum albumin; ThermoFisher, Cat. #15260037), in ultra-pure water. The final concentration of the assay buffer was 770 nM. A 5 mM stock solution of the peptide substrate was prepared using […] MBP (Myelin Basic Protein, Active Motif, Cat. #31314), 10 mM ATP (adenosine 5′-triphosphate; Sigma-Aldrich, Cat. #GE27-2056-01) and of assay buffer.
Test compounds were dissolved in DMSO (dimethyl sulfoxide) at 10 mM and then serial dilutions were prepared using a ViaFlow assist multichannel dispenser (Integra ViaFlo). 20 nL of test compounds at various concentrations were dispensed into a 1536-well assay plate (Corning Cat. #7247) using an Echo Nanoliter dispenser (Labcyte ECHO 550). […] of a 1 nM solution of HPK1 kinase enzyme diluted in assay buffer was added to the compound-containing plate using a Mantis Microliter dispenser (Formulatrix Mantis), covered with a lid, and incubated for 15 minutes at room temperature. 50 nL of a 5 mM stock solution of the peptide substrate (MBP) were added using the Echo Nanoliter dispenser. The plate was covered with a lid, centrifugated at 500 rpm for 1 minute and incubated for 2 hours at room temperature. […] of ADP-Glo reagent A was added using the Mantis Microliter dispenser, centrifugated at 500 rpm for 30 seconds and incubated for 40 minutes at room temperature. […] of ADP-Glo reagent B was added using the Mantis Microliter dispenser, centrifugated at 500 rpm for 30 seconds and incubated for 30 minutes at room temperature. Peptide phosphorylation was measured by luminescence on an Envision plate reader (PerkinElmer).
The HPK1 biochemical IC50 activity levels of the compounds of Examples 1-225 were tested using this assay and are shown in Table 2.
For orientation: ADP-Glo turns the ADP formed in a reaction into a luminescent signal.

Each structure is given as a SMILES string. Where a name gives a salt, the structure may show the parent alone.

Consider `COc1cc2c(cc1Nc1ncc3c(C)nn(CC[C@H](C)O)c3n1)CN(C)CC2` [Example 90, (2S)-4-[6-[(6-methoxy-2-methyl-3,4-dihydro-1H-isoquinolin-7-yl)amino]-3-methyl-pyrazolo[3,4-d]pyrimidin-1-yl]butan-2-ol], for which the IC50 – broadly, the concentration that gives 50% inhibition – is less than 100 nM. To `CC(CO)n1ncc2cnc(Nc3ccc4c(c3)CN(C)CC4)nc21` (stereo not shown) [Example 10, 2-[6-[(2-methyl-3,4-dihydro-1H-isoquinolin-7-yl)amino]pyrazolo[3,4-d]pyrimidin-1-yl]propan-1-ol trifluoroacetate] belongs less than 100 nM; to `CC(C)n1nc(C(F)(F)F)c2cnc(Nc3ccc4c(c3)CN(C)CC4)nc21` [Example 6, N-[1-isopropyl-3-(trifluoromethyl)pyrazolo[3,4-d]pyrimidin-6-yl]-2-methyl-3,4-dihydro-1H-isoquinolin-7-amine], less than 100 nM. To `Cc1nn(C2COC2)c2nc(Nc3ccc4c(c3)CN(C)CC4)ncc12` [Example 2, 2-methyl-N-[3-methyl-1-(oxetan-3-yl)pyrazolo[3,4-d]pyrimidin-6-yl]-3,4-dihydro-1H-isoquinolin-7-amine] belongs less than 100 nM; to `CN1CCc2ccc(Nc3ncc4cnn(C5CCOCC5)c4n3)cc2C1` [Example 12, 2-methyl-N-(1-(tetrahydro-2H-pyran-4-yl)-1H-pyrazolo[3,4-d]pyrimidin-6-yl)-1,2,3,4-tetrahydroisoquinolin-7-amine], less than 100 nM; to `COc1cc2c(cc1Nc1ncc3cnn([C@@H]4CC[C@H]5CN(C(C)=O)[C@H]54)c3n1)CN(C)CC2` [Example 209, 1-((1S,4R,5R)-4-(6-((6-methoxy-2-methyl-1,2,3,4-tetrahydroisoquinolin-7-yl)amino)-1H-pyrazolo[3,4-d]pyrimidin-1-yl)-6-azabicyclo[3.2.0]heptan-6-yl)ethan-1-one], less than 100 nM. Regarding `COc1cc2c(cc1Nc1ncc3c(C)nn([C@H]4CC[C@@H](O)C4)c3n1)CN(C)CC2` (relative stereo) [Example 149, (rel-1S,3R)-3-(6-((6-methoxy-2-methyl-1,2,3,4-tetrahydroisoquinolin-7-yl)amino)-3-methyl-1H-pyrazolo[3,4-d]pyrimidin-1-yl)cyclopentan-1-ol], the IC50 was less than 100 nM. To `COc1nc2c(cc1Nc1ncc3cnn(C[C@@H]4CC[C@H](C)N4C(C)=O)c3n1)CN(C)CC2` [Example 172, 1-[(2S,5S)-2-[[6-[(2-methoxy-6-methyl-7,8-dihydro-5H-1,6-naphthyridin-3-yl)amino]pyrazolo[3,4-d]pyrimidin-1-yl]methyl]-5-methyl-pyrrolidin-1-yl]ethenone] belongs less than 100 nM; to `COc1cc2c(cc1Nc1ncc3cnn(C[C@@H]4[C@@H]5C[C@@H]5CN4C(C)=O)c3n1)CN(C)CC2` [Example 137, 1-((1R,2S,5S)-2-((6-((6-methoxy-2-methyl-1,2,3,4-tetrahydroisoquinolin-7-yl)amino)-1H-pyrazolo[3,4-d]pyrimidin-1-yl)methyl)-3-azabicyclo[3.1.0]hexan-3-yl)ethan-1-one], less than 100 nM. Turning to `COc1cc2c(cc1Nc1ncc3c(C)nn([C@H]4CC[C@@H](CO)CC4)c3n1)CN(C)CC2` [Example 78, cis-[4-[6-[(6-methoxy-2-methyl-3,4-dihydro-1H-isoquinolin-7-yl)amino]-3-methyl-pyrazolo[3,4-d]pyrimidin-1-yl]cyclohexyl]methanol], the IC50 is less than 100 nM. To `COc1cc2c(cc1Nc1ncc3cnn(CC4(F)CC4)c3n1)CN(C)CC2` [Example 204, N-(1-((1-fluorocyclopropyl)methyl)-1H-pyrazolo[3,4-d]pyrimidin-6-yl)-6-methoxy-2-methyl-1,2,3,4-tetrahydroisoquinolin-7-amine] belongs less than 100 nM; to `COc1cc2c(cc1Nc1ncc3cnn(C[C@@H]4CCCN4C(C)=O)c3n1)CN(CCO)CC2` [Example 194, (S)-1-(2-((6-((2-(2-hydroxyethyl)-6-methoxy-1,2,3,4-tetrahydroisoquinolin-7-yl)amino)-1H-pyrazolo[3,4-d]pyrimidin-1-yl)methyl)pyrrolidin-1-yl)ethan-1-one], less than 100 nM. As for `CCOC(=O)Cn1ncc2cnc(Nc3ccc4c(c3)CN(C)CC4)nc21` [Example 9, Ethyl 2-[6-[(2-methyl-3,4-dihydro-1H-isoquinolin-7-yl)amino]pyrazolo[3,4-d]pyrimidin-1-yl]acetate], the IC50 was less than 100 nM. To `COc1cc2c(cc1Nc1ncc3cnn(C[C@@H]4CCCN4C(=O)CO)c3n1)CN(C)CC2` [Example 114, (S)-2-hydroxy-1-(2-((6-((6-methoxy-2-methyl-1,2,3,4-tetrahydroisoquinolin-7-yl)amino)-1H-pyrazolo[3,4-d]pyrimidin-1-yl)methyl)230yrrolidine-1-yl)ethan-1-one 2,2,2-trifluoroacetate] belongs less than 100 nM; to `COc1cc2c(cc1Nc1ncc3c(C(F)(F)F)nn(C(C)C)c3n1)CN(C)CC2` [Example 7, N-(1-isopropyl-3-(trifluoromethyl)-1H-pyrazolo[3,4-d]pyrimidin-6-yl)-6-methoxy-2-methyl-1,2,3,4-tetrahydroisoquinolin-7-amine], less than 100 nM; to `CN1CCc2ccc(Nc3ncc4cnn(C[C@@H]5CCC[C@H]5C(=O)O)c4n3)cc2C1` (racemic) [Example 161, Rac-trans-2-[[6-[(2-methyl-3,4-dihydro-1H-isoquinolin-7-yl)amino]pyrazolo[3,4-d]pyrimidin-1-yl]methyl]cyclopentanecarboxylic Acid], less than 100 nM. With `COc1cc2c(cc1Nc1ncc3cnn([C@H]4CCC[C@H](CO)C4)c3n1)CN(C)CC2` [Example 63, ((1S,3S)-3-(6-((6-methoxy-2-methyl-1,2,3,4-tetrahydroisoquinolin-7-yl)amino)-1H-pyrazolo[3,4-d]pyrimidin-1-yl)cyclohexyl)methanol hydrochloride], the half-maximal inhibitory concentration (IC50) is less than 100 nM. To `COc1cc2c(cc1Nc1ncc3cnn(C4CCCN(C(C)=O)C4)c3n1)CN(C)CC2` (stereo not shown) [Example 109, 1-(3-(6-((6-methoxy-2-methyl-1,2,3,4-tetrahydroisoquinolin-7-yl)amino)-1H-pyrazolo[3,4-d]pyrimidin-1-yl)piperidin-1-yl)ethan-1-one] belongs less than 100 nM. To `COCCN1CCc2cc(OC)c(Nc3ncc4cnn(C[C@@H]5CCCN5C(C)=O)c4n3)cc2C1` [Example 197, (S)-1-(2-((6-((6-methoxy-2-(2-methoxyethyl)-1,2,3,4-tetrahydroisoquinolin-7-yl)amino)-1H-pyrazolo[3,4-d]pyrimidin-1-yl)methyl)pyrrolidin-1-yl)ethan-1-one Hydrochloride] belongs less than 100 nM. To `COc1cc2c(cc1Nc1ncc3cnn([C@H]4CC[C@@H](C(=O)N(C)C)CC4)c3n1)CN(C)CC2` [Example 54, (1s,4s)-4-(6-((6-methoxy-2-methyl-1,2,3,4-tetrahydroisoquinolin-7-yl)amino)-1H-pyrazolo[3,4-d]pyrimidin-1-yl)-N,N-dimethylcyclohexane-1-carboxamide] belongs less than 100 nM; to `COc1cc2c(cc1Nc1ncc3cnn(C4CCC(F)(F)CC4)c3n1)CN(C)CC2` [Example 192, N-[1-(4,4-difluorocyclohexyl)pyrazolo[3,4-d]pyrimidin-6-yl]-6-methoxy-2-methyl-3,4-dihydro-1H-isoquinolin-7-amine Hydrochloride], less than 100 nM.

As to `COc1cc2c(cc1Nc1ncc3c(C)nn([C@H]4CC[C@H](O)CC4)c3n1)CN(C)CC2` [Example 50, trans-4-(6-((6-methoxy-2-methyl-1,2,3,4-tetrahydroisoquinolin-7-yl)amino)-3-methyl-1H-pyrazolo[3,4-d]pyrimidin-1-yl)cyclohexan-1-ol], the IC50 was less than 100 nM.
